Experimental data: patent US20050080037A1, “Methods for treating acute and overuse sprain and strain using hyaluronic acid” (priority 2003, published 2005)

Tested on: patients with first or second degree lateral ankle sprain
Experiment: Efficacy of HA on ankle sprain following periarticular administration (clinical study 1: HA; study 2: celecoxib or naproxen)
Format: in vivo, human
Details: for Percentage increase in Patient's Global Assessment (improved by one or more grades) / Mean Patient's Satisfaction Assessment (10 point scale) / Mean Physician's Satisfaction Assessment (10 point scale): study 2, oral BID for 7 days; for Mean VAS Weight-bearing (100 mm): study 2, oral BID for 7 days (celecoxib 200 mg, naproxen 500 mg)
Procedure: The study was conducted in accordance with good clinical practice and in compliance with the requirement of the International Conference on Harmonization and Declaration of Helsinki. On Day 1 (within 48 hours of the injury), the patients were examined to assess whether they meet all the inclusion criteria and none of the exclusion criteria after signing the informed consent. The inclusion criteria were: 18 years and older, first or second degree lateral ankle […] within 48 hours of administration of study drug, reported moderate (45-60 mm) to severe (>60 mm) ankle pain on full weight bearing on the Patient's Assessment of Ankle Pain using a 100 mm Visual Analogue Scale (VAS). This scale was available for the duration of the clinical follow-up. Patients with bilateral ankle […] injury, third-degree […], or previous ankle […] within 6 months were excluded. Also excluded were patients who had recently used anti-inflammatory drugs, muscle relaxants, or certain classes of psychotropic medications that could confound the results. In addition, patients with sensitivity or allergy to NSAIDs or sulfonamides as well as patients with a history of serious GI, renal, or hepatic disease were excluded. Patients with other rheumatic diseases or a history of drug or alcohol abuse were also excluded. After enrollment, patients received periarticular injections of HA (study 1) or an inhibitor of cyclooxygenase-2 or a NSAID (study 2). […] Eight to ten mg of HA (0.8-1.0 ml of HA) was injected, without anesthetic (study 1). Oral treatments with an inhibitor of cyclooxygenase-2, celecoxib 200 mg BID, or with a NSAID, naproxen 500 mg BID, were done for 7 days (study 2). Clinical assessments were performed at baseline, and then before treatment on Day 4 and Day 8 (end of study). […] In Table 1, 7 patients received HA. In Table 2, 199 patients received celecoxib and 198 patients received naproxen.

Structure (SMILES) | Percentage increase in Patient's Global Assessment (improved by one or more grades) (at day 4) | Mean VAS Weight-bearing (100 mm) (at day 4) | Mean Patient's Satisfaction Assessment (10 point scale) (at day 8) | Mean Physician's Satisfaction Assessment (10 point scale) (at day 8) | Percentage increase in Patient's Global Assessment (improved by one or more grades) (at day 8) | Mean VAS Weight-bearing (100 mm) (at day 8)
COc1ccc2cc([C@H](C)C(=O)O)ccc2c1 [Naproxen, naproxen] | 72% | 29.0 mm | 8.7 | 8.6 | 90% | 15.3 mm
Cc1ccc(-c2cc(C(F)(F)F)nn2-c2ccc(S(N)(=O)=O)cc2)cc1 [Celecoxib, celecoxib] | 71% | 31.9 mm | 8.8 | 8.7 | 89% | 15.0 mm
